From PMC10962654 (Journal of Food and Drug Analysis, 2023)
Where a name gives a salt, the structure may show the parent alone. Read-outs that look alike come from different tables or passages of the source.

Tests used:
IMA = assay: Plasma IMA; type: in vivo, Sprague Dawley rats; conditions: MI/R rats, Sigmoid-Emax model
cTn I = assay: Plasma cTn I; type: in vivo, Sprague Dawley rats; conditions: MI/R rats, Sigmoid-Emax model
α-HBDH = assay: Plasma α-HBDH; type: in vivo, Sprague Dawley rats; conditions: MI/R rats, Sigmoid-Emax model
CK-MB = assay: Plasma CK-MB; type: in vivo, Sprague Dawley rats; conditions: MI/R rats, Sigmoid-Emax model
[1] = MI/R rats, plasma, n = 6
[2] = tested on: CK-MB, IMA, cTn I, and α-HBDH; assay: Cardioprotection in MI/R rats judged on the four myocardial injury biomarkers; type: in vivo, Sprague Dawley rats; conditions: plasma, ELISA, i.v.

Compound: CC(=O)N[C@@H](CCC(N)=O)C(=O)O [N-acetyl-L-glutamine]
- Emax (maximal effect) of optimal PK/PD equation, ΔIMA (IMA; GHI-H (10 mL/kg, i.v.)): 77.916
- Emax (maximal effect) of optimal PK/PD equation, ΔIMA (IMA; GHI-L ([…], i.v.)): 31.136
- Emax (maximal effect) of optimal PK/PD equation, ΔIMA (IMA; GHI-M (5 mL/kg, i.v.)): 42.733
- Emax (maximal effect) of optimal PK/PD equation, ΔcTn I (cTn I; GHI-H (10 mL/kg, i.v.)): 10.158
- Emax (maximal effect) of optimal PK/PD equation, ΔcTn I (cTn I; GHI-L ([…], i.v.)): 4.608
- Emax (maximal effect) of optimal PK/PD equation, ΔcTn I (cTn I; GHI-M (5 mL/kg, i.v.)): 6.714
- Emax (maximal effect) of optimal PK/PD equation, Δα-HBDH (α-HBDH; GHI-H (10 mL/kg, i.v.)): 91.925
- Emax (maximal effect) of optimal PK/PD equation, Δα-HBDH (α-HBDH; GHI-L ([…], i.v.)): 48.85
- Emax (maximal effect) of optimal PK/PD equation, Δα-HBDH (α-HBDH; GHI-M (5 mL/kg, i.v.)): 72.312
- Emax (maximal effect) of optimal PK/PD equation, ΔCK-MB (CK-MB; GHI-L ([…], i.v.)): 11.04
- Emax (maximal effect) of optimal PK/PD equation, ΔCK-MB (CK-MB; GHI-M (5 mL/kg, i.v.)): 13.089
- AUC(0-t) ([1]; GHI-H (GHI 10 mL/kg, i.v.)): 1048.88 ± 551.764 ng·h/mL
- AUC(0-∞) ([1]; GHI-H (GHI 10 mL/kg, i.v.)): 1079.308 ± 551.248 ng·h/mL
- t1/2β ([1]; GHI-H (GHI 10 mL/kg, i.v.)): 42.5 ± 4.98 min
- AUC(0-t) ([1]; GHI-L (GHI […], i.v.)): 538.219 ± 290.308 ng·h/mL
- AUC(0-∞) ([1]; GHI-L (GHI […], i.v.)): 553.382 ± 290.017 ng·h/mL
- t1/2β ([1]; GHI-L (GHI […], i.v.)): 48.8 ± 4.68 min
- AUC(0-t) ([1]; GHI-M (GHI 5 mL/kg, i.v.)): 1012.749 ± 472.353 ng·h/mL
- AUC(0-∞) ([1]; GHI-M (GHI 5 mL/kg, i.v.)): 1060.065 ± 473.211 ng·h/mL
- t1/2β ([1]; GHI-M (GHI 5 mL/kg, i.v.)): 27.7 ± 1.38 min

Compound: O=C(O)/C=C/c1ccc(O)cc1 [p-Coumaric acid, p-coumaric acid]
- Emax (maximal effect) of optimal PK/PD equation, ΔIMA (IMA; GHI-H (10 mL/kg, i.v.)): 62.712
- Emax (maximal effect) of optimal PK/PD equation, ΔIMA (IMA; GHI-L ([…], i.v.)): 19.558
- Emax (maximal effect) of optimal PK/PD equation, ΔIMA (IMA; GHI-M (5 mL/kg, i.v.)): 49.851
- Emax (maximal effect) of optimal PK/PD equation, ΔcTn I (cTn I; GHI-H (10 mL/kg, i.v.)): 9.007
- Emax (maximal effect) of optimal PK/PD equation, ΔcTn I (cTn I; GHI-L ([…], i.v.)): 2.907
- Emax (maximal effect) of optimal PK/PD equation, ΔcTn I (cTn I; GHI-M (5 mL/kg, i.v.)): 7.258
- Emax (maximal effect) of optimal PK/PD equation, Δα-HBDH (α-HBDH; GHI-H (10 mL/kg, i.v.)): 89.907
- Emax (maximal effect) of optimal PK/PD equation, Δα-HBDH (α-HBDH; GHI-L ([…], i.v.)): 37.993
- Emax (maximal effect) of optimal PK/PD equation, Δα-HBDH (α-HBDH; GHI-M (5 mL/kg, i.v.)): 71.86
- Emax (maximal effect) of optimal PK/PD equation, ΔCK-MB (CK-MB; GHI-H (10 mL/kg, i.v.)): 15.798
- Emax (maximal effect) of optimal PK/PD equation, ΔCK-MB (CK-MB; GHI-L ([…], i.v.)): 6.058
- Emax (maximal effect) of optimal PK/PD equation, ΔCK-MB (CK-MB; GHI-M (5 mL/kg, i.v.)): 15.943
- CL1 ([1]; GHI-H (GHI 10 mL/kg, i.v.)): 57.82 ± 3.12 mL/min/kg
- CL2 ([1]; GHI-H (GHI 10 mL/kg, i.v.)): 111 ± 36.42 mL/min/kg
- K10 ([1]; GHI-H (GHI 10 mL/kg, i.v.)): 4.878 ± 0.808 h⁻¹
- K12 ([1]; GHI-H (GHI 10 mL/kg, i.v.)): 9.545 ± 4.156 h⁻¹
- K21 ([1]; GHI-H (GHI 10 mL/kg, i.v.)): 10.071 ± 3.659 h⁻¹
- Q ([1]; GHI-H (GHI 10 mL/kg, i.v.)): 110.9 ± 36.38 mL/min/kg
- V1 ([1]; GHI-H (GHI 10 mL/kg, i.v.)): 0.723 ± 0.095 L/kg
- V2 ([1]; GHI-H (GHI 10 mL/kg, i.v.)): 0.669 ± 0.07 L/kg
- t1/2α ([1]; GHI-H (GHI 10 mL/kg, i.v.)): 2.04 ± 0.6 min
- CL1 ([1]; GHI-L (GHI […], i.v.)): 55.28 ± 6.15 mL/min/kg
- CL2 ([1]; GHI-L (GHI […], i.v.)): 98.48 ± 21.73 mL/min/kg
- K10 ([1]; GHI-L (GHI […], i.v.)): 8.039 ± 2.934 h⁻¹
- K12 ([1]; GHI-L (GHI […], i.v.)): 14.117 ± 4.736 h⁻¹
- K21 ([1]; GHI-L (GHI […], i.v.)): 4.662 ± 1.024 h⁻¹
- Q ([1]; GHI-L (GHI […], i.v.)): 98.48 ± 21.67 mL/min/kg
- V1 ([1]; GHI-L (GHI […], i.v.)): 0.462 ± 0.17 L/kg
- V2 ([1]; GHI-L (GHI […], i.v.)): 1.272 ± 0.124 L/kg
- t1/2α ([1]; GHI-L (GHI […], i.v.)): 1.8 ± 0.54 min
- CL1 ([1]; GHI-M (GHI 5 mL/kg, i.v.)): 46.8 ± 2.23 mL/min/kg
- CL2 ([1]; GHI-M (GHI 5 mL/kg, i.v.)): 115.3 ± 41 mL/min/kg
- K10 ([1]; GHI-M (GHI 5 mL/kg, i.v.)): 4.277 ± 0.897 h⁻¹
- K12 ([1]; GHI-M (GHI 5 mL/kg, i.v.)): 11.023 ± 5.384 h⁻¹
- K21 ([1]; GHI-M (GHI 5 mL/kg, i.v.)): 10.302 ± 3.876 h⁻¹
- Q ([1]; GHI-M (GHI 5 mL/kg, i.v.)): 115.3 ± 41.02 mL/min/kg
- V1 ([1]; GHI-M (GHI 5 mL/kg, i.v.)): 0.677 ± 0.122 L/kg
- V2 ([1]; GHI-M (GHI 5 mL/kg, i.v.)): 0.7 ± 0.142 L/kg
- t1/2α ([1]; GHI-M (GHI 5 mL/kg, i.v.)): 2.22 ± 1.5 min

Compound: COc1ccc(CCN(C)CCCC(C#N)(c2ccc(OC)c(OC)c2)C(C)C)cc1OC (centres unmarked) [verapamil hydrochloride, Verapamil hydrochloride]
- elevated level of the four biomarkers induced by MI/R [2]: declined to different degrees

Compound: hydroxysafflor yellow A
- Emax (maximal effect) of optimal PK/PD equation, ΔIMA (IMA; GHI-L ([…], i.v.)): 31.473
- Emax (maximal effect) of optimal PK/PD equation, ΔIMA (IMA; GHI-M (5 mL/kg, i.v.)): 49.851
- Emax (maximal effect) of optimal PK/PD equation, ΔcTn I (cTn I; GHI-L ([…], i.v.)): 4.628
- Emax (maximal effect) of optimal PK/PD equation, ΔcTn I (cTn I; GHI-M (5 mL/kg, i.v.)): 7.341
- Emax (maximal effect) of optimal PK/PD equation, Δα-HBDH (α-HBDH; GHI-L ([…], i.v.)): 49.45
- Emax (maximal effect) of optimal PK/PD equation, Δα-HBDH (α-HBDH; GHI-M (5 mL/kg, i.v.)): 88.223
- Emax (maximal effect) of optimal PK/PD equation, ΔCK-MB (CK-MB; GHI-L ([…], i.v.)): 11.082
- Emax (maximal effect) of optimal PK/PD equation, ΔCK-MB (CK-MB; GHI-M (5 mL/kg, i.v.)): 27.2
